What is called IC50 is the point on the concentration scale where inhibition reaches its midpoint. High values mean lower potency, low ones higher potency.

Data on three molecules can be found in patent US7691851B2, “Metalloprotease inhibitors containing a heterocyclic moiety” (Alantos Pharmaceuticals Holding, Inc., priority 2007, dated 2010).

Each structure is given as a SMILES string.

The target in this experiment is T1, MMP-13 (Homo sapiens, UniProt P45452).
T1 construct: 10 μL of a 50 nM stock solution of catalytic domain of MMP-13 enzyme; purchased Invitek (Berlin) 30100812
Put plainly: Assay for determining MMP-13 inhibition (fluorescent substrate). It counts as biochemical. The note with it: catalytic domain of MMP-13. As to the method: The inhibiting activity towards different metalloproteases of the heterocyclic metalloprotease inhibiting compounds of the present invention may be measured using any suitable assay known in the art. A standard in vitro assay for measuring the metalloprotease inhibiting activity is described in Examples 1700 to 1704.
The typical assay for MMP-13 activity is carried out in assay buffer comprised of 50 mM Tris, pH 7.5, 150 mM NaCl, 5 mM CaCl2 and 0.05% Brij-35. Different concentrations of tested compounds are prepared in assay buffer in 50 μL aliquots. 10 μL of a 50 nM stock solution of catalytic domain of MMP-13 enzyme (produced by Alantos or commercially available from Invitek (Berlin), Cat.# 30100812) is added to the compound solution. The mixture of enzyme and compound in assay buffer is thoroughly mixed and incubated for 10 min at room temperature. Upon the completion of incubation, the assay is started by addition of 40 μL of a 12.5 μM stock solution of MMP-13 fluorescent substrate (Calbiochem, Cat. No. 444235). The time-dependent increase in fluorescence is measured at the 320 nm excitation and 390 nm emission by automatic plate multireader. The IC50 values are calculated from the initial reaction rates.

Setting [1] is: compounds stated as lower than 100 nM.

For the molecule `Cc1c(C(=O)O)ccc2c1CC[C@@H]2NC(=O)c1cc(C(=O)NCc2ccc3c(c2)-n2c(noc2=O)CO3)nc2ccnn12` [Example 1/2], the IC50 (range class, units printed within the value (nM to μM)) fell in the range of 100 to 20000 nM.
`Cc1c(C(=O)O)ccc2c1CC[C@@H]2NC(=O)c1cc(C(=O)NCc2ccc3c(c2)NC(=S)CO3)nc2ccnn12` [1/1]: the concentration for half-maximal inhibition (IC50) under setting [1] was below 100 nM.
`Cc1c(C(=O)O)ccc2c1CC[C@@H]2NC(=O)c1cc(C(=O)NCc2ccc3c(c2)-n2cnnc2CO3)nc2ccnn12` [Example 1] gave an IC50 under setting [1] below 100 nM.
